# From ChEMBL document CHEMBL6121016, “Design, Synthesis, and Biological Evaluation of 1,3,4-Thiadiazole Derivatives as Novel Potent Peptide Deformylase Inhibitors for Combating Drug-Resistant Gram-Positive and -Negative Bacteria” (J Med Chem, 2025)
# Tested on: Klebsiella pneumoniae
# Assay: Antibacterial activity against Klebsiella pneumoniae CICC 20093 after 16 to 18 hrs by broth microdilution method
# Format: functional
# Conditions: time 16-18 hrs
row,Structure (SMILES),MIC [µg/mL]
1,CCCC[C@H](CN(O)C=O)C(=O)N1CCC[C@H]1c1nnc(-c2ccc([N+](=O)[O-])cc2F)s1,16
2,CCCC[C@H](CN(O)C=O)C(=O)N1CCC[C@H]1c1nnc(-c2ccc(-c3ccccn3)cc2)s1,16

# Tested on: Staphylococcus aureus
# Assay: Antibacterial activity against methicillin-resistant Staphylococcus aureus ATCC 43300 after 16 to 18 hrs by broth microdilution method
# Format: functional
# Conditions: time 16-18 hrs
row,Structure (SMILES),MIC [µg/mL]
1,CCCC[C@H](CN(O)C=O)C(=O)N1CCC[C@H]1c1nnc(-c2ccc([N+](=O)[O-])cc2F)s1,0.125
2,CCCC[C@H](CN(O)C=O)C(=O)N1CCC[C@H]1c1nnc(-c2ccc(-c3ccccn3)cc2)s1,0.25

# Tested on: Acinetobacter baumannii
# Assay: Antibacterial activity against drug-resistant Acinetobacter baumannii Bio 53272 after 16 to 18 hrs by broth microdilution method
# Format: functional
# Conditions: time 16-18 hrs
row,Structure (SMILES),MIC [µg/mL]
1,CCCC[C@H](CN(O)C=O)C(=O)N1CCC[C@H]1c1nnc(-c2ccc([N+](=O)[O-])cc2F)s1,> 16
2,CCCC[C@H](CN(O)C=O)C(=O)N1CCC[C@H]1c1nnc(-c2ccc(-c3ccccn3)cc2)s1,32

# Tested on: Staphylococcus aureus
# Assay: Antibacterial activity against methicillin-susceptible Staphylococcus aureus ATCC 25923 after 16 to 18 hrs by broth microdilution method
# Format: functional
# Conditions: time 16-18 hrs
row,Structure (SMILES),MIC [µg/mL]
1,CCCC[C@H](CN(O)C=O)C(=O)N1CCC[C@H]1c1nnc(-c2ccc([N+](=O)[O-])cc2F)s1,0.25
2,CCCC[C@H](CN(O)C=O)C(=O)N1CCC[C@H]1c1nnc(-c2ccc(-c3ccccn3)cc2)s1,0.25

# Tested on: Staphylococcus aureus
# Assay: Antibacterial activity against methicillin-resistant Staphylococcus aureus ATCC 33591 after 16 to 18 hrs by broth microdilution method
# Format: functional
# Conditions: time 16-18 hrs
row,Structure (SMILES),MIC [µg/mL]
1,CCCC[C@H](CN(O)C=O)C(=O)N1CCC[C@H]1c1nnc(-c2ccc([N+](=O)[O-])cc2F)s1,0.125
2,CCCC[C@H](CN(O)C=O)C(=O)N1CCC[C@H]1c1nnc(-c2ccc(-c3ccccn3)cc2)s1,0.125

# Tested on: Escherichia coli
# Assay: Antibacterial activity against Escherichia coli ATCC 10663 after 16 to 18 hrs by broth microdilution method
# Format: functional
# Conditions: time 16-18 hrs
row,Structure (SMILES),MIC [µg/mL]
1,CCCC[C@H](CN(O)C=O)C(=O)N1CCC[C@H]1c1nnc(-c2ccc([N+](=O)[O-])cc2F)s1,8
2,CCCC[C@H](CN(O)C=O)C(=O)N1CCC[C@H]1c1nnc(-c2ccc(-c3ccccn3)cc2)s1,16

# Tested on: Staphylococcus aureus
# Assay: Antibacterial activity against methicillin-susceptible Staphylococcus aureus ATCC 13709 after 16 to 18 hrs by broth microdilution method
# Format: functional
# Conditions: time 16-18 hrs
row,Structure (SMILES),MIC [µg/mL]
1,CCCC[C@H](CN(O)C=O)C(=O)N1CCC[C@H]1c1nnc(-c2ccc([N+](=O)[O-])cc2F)s1,0.5
2,CCCC[C@H](CN(O)C=O)C(=O)N1CCC[C@H]1c1nnc(-c2ccc(-c3ccccn3)cc2)s1,0.5

# Target: T1, Peptide deformylase (Staphylococcus aureus, UniProt P68826)
# T1 sequence (P68826 whole entry): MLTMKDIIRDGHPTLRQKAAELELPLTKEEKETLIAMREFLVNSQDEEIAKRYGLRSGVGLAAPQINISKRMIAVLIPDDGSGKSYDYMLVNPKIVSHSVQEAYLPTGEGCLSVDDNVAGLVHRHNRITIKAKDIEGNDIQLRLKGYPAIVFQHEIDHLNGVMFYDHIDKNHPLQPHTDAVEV
# Assay: Inhibition of Staphylococcus aureus PDF-Ni assessed as enzyme activity incubated for 30 min by fluorescamine method
# Conditions: not given
row,Structure (SMILES),IC50 [µM]
1,CCCC[C@H](CN(O)C=O)C(=O)N1CCC[C@H]1c1nnc(-c2ccc(-c3ccccn3)cc2)s1,0.0043

# Tested on: not listed separately
# Assay: Aqueous solubility of compound at 0.9% aqueous NaCl solution incubated for 2 hrs by UV spectrophotometry analysis
# Format: physicochemical
# Conditions: not given
row,Structure (SMILES),solubility at 2 h [µg/mL]
1,CCCC[C@H](CN(O)C=O)C(=O)N1CCC[C@H]1c1nnc(-c2ccc([N+](=O)[O-])cc2F)s1,2020
2,CCCC[C@H](CN(O)C=O)C(=O)N1CCC[C@H]1c1nnc(-c2ccc(-c3ccccn3)cc2)s1,370

# Tested on: not listed separately
# Assay: Cytotoxicity against human HEK293T cells assessed as cell viability at 3.125 to 100 uM incubated for 24 hrs by MTT assay
# Format: toxicity, cell-based, HEK-293T
# Conditions: not given
row,Structure (SMILES),IC50 at 24 h [µM]
1,CCCC[C@H](CN(O)C=O)C(=O)N1CCC[C@H]1c1nnc(-c2ccc([N+](=O)[O-])cc2F)s1,> 100
2,CCCC[C@H](CN(O)C=O)C(=O)N1CCC[C@H]1c1nnc(-c2ccc(-c3ccccn3)cc2)s1,> 100

# Tested on: Staphylococcus epidermidis
# Assay: Antibacterial activity against Staphylococcus epidermidis after 16 to 18 hrs by broth microdilution method
# Format: functional
# Conditions: time 16-18 hrs
row,Structure (SMILES),MIC [µg/mL]
1,CCCC[C@H](CN(O)C=O)C(=O)N1CCC[C@H]1c1nnc(-c2ccc([N+](=O)[O-])cc2F)s1,0.5
2,CCCC[C@H](CN(O)C=O)C(=O)N1CCC[C@H]1c1nnc(-c2ccc(-c3ccccn3)cc2)s1,1

# Tested on: Staphylococcus aureus
# Assay: Bactericidal activity against methicillin-resistant Staphylococcus aureus assessed as bacteriostatic efficiency at 0.5 microg/mL incubated for 24 hrs by time killing analysis relative to control
# Format: functional
# Conditions: dose 0.5 µg/ml
row,Structure (SMILES),Activity [%]
1,CCCC[C@H](CN(O)C=O)C(=O)N1CCC[C@H]1c1nnc(-c2ccc([N+](=O)[O-])cc2F)s1,100

# Tested on: Staphylococcus aureus
# Assay: Antibacterial activity against methicillin-susceptible Staphylococcus aureus ATCC 29213 after 16 to 18 hrs by broth microdilution method
# Format: functional
# Conditions: time 16-18 hrs
row,Structure (SMILES),MIC [µg/mL]
1,CCCC[C@H](CN(O)C=O)C(=O)N1CCC[C@H]1c1nnc(-c2ccc([N+](=O)[O-])cc2F)s1,0.5
2,CCCC[C@H](CN(O)C=O)C(=O)N1CCC[C@H]1c1nnc(-c2ccc(-c3ccccn3)cc2)s1,0.5

# Tested on: Acinetobacter baumannii
# Assay: Antibacterial activity against Acinetobacter baumannii Bio 53250 after 16 to 18 hrs by broth microdilution method
# Format: functional
# Conditions: time 16-18 hrs
row,Structure (SMILES),MIC [µg/mL]
1,CCCC[C@H](CN(O)C=O)C(=O)N1CCC[C@H]1c1nnc(-c2ccc([N+](=O)[O-])cc2F)s1,16
2,CCCC[C@H](CN(O)C=O)C(=O)N1CCC[C@H]1c1nnc(-c2ccc(-c3ccccn3)cc2)s1,32

# Tested on: Acinetobacter baumannii
# Assay: Antibacterial activity against Acinetobacter baumannii Bio 69680 after 16 to 18 hrs by broth microdilution method
# Format: functional
# Conditions: time 16-18 hrs
row,Structure (SMILES),MIC [µg/mL]
1,CCCC[C@H](CN(O)C=O)C(=O)N1CCC[C@H]1c1nnc(-c2ccc([N+](=O)[O-])cc2F)s1,16
2,CCCC[C@H](CN(O)C=O)C(=O)N1CCC[C@H]1c1nnc(-c2ccc(-c3ccccn3)cc2)s1,32

# Tested on: Acinetobacter baumannii
# Assay: Antibacterial activity against Acinetobacter baumannii Bio 120982 after 16 to 18 hrs by broth microdilution method
# Format: functional
# Conditions: time 16-18 hrs
row,Structure (SMILES),MIC [µg/mL]
1,CCCC[C@H](CN(O)C=O)C(=O)N1CCC[C@H]1c1nnc(-c2ccc([N+](=O)[O-])cc2F)s1,16
2,CCCC[C@H](CN(O)C=O)C(=O)N1CCC[C@H]1c1nnc(-c2ccc(-c3ccccn3)cc2)s1,32

# Tested on: Escherichia coli
# Assay: Antibacterial activity against Escherichia coli ATCC 10668 after 16 to 18 hrs by broth microdilution method
# Format: functional
# Conditions: time 16-18 hrs
row,Structure (SMILES),MIC [µg/mL]
1,CCCC[C@H](CN(O)C=O)C(=O)N1CCC[C@H]1c1nnc(-c2ccc([N+](=O)[O-])cc2F)s1,16
2,CCCC[C@H](CN(O)C=O)C(=O)N1CCC[C@H]1c1nnc(-c2ccc(-c3ccccn3)cc2)s1,16

# Tested on: Acinetobacter baumannii
# Assay: Antibacterial activity against Acinetobacter baumannii Bio 53272 after 16 to 18 hrs by broth microdilution method
# Format: functional
# Conditions: time 16-18 hrs
row,Structure (SMILES),MIC [µg/mL]
1,CCCC[C@H](CN(O)C=O)C(=O)N1CCC[C@H]1c1nnc(-c2ccc([N+](=O)[O-])cc2F)s1,16
2,CCCC[C@H](CN(O)C=O)C(=O)N1CCC[C@H]1c1nnc(-c2ccc(-c3ccccn3)cc2)s1,32

# Tested on: Klebsiella pneumoniae
# Assay: Antibacterial activity against Klebsiella pneumoniae CICC 21611 after 16 to 18 hrs by broth microdilution method
# Format: functional
# Conditions: time 16-18 hrs
row,Structure (SMILES),MIC [µg/mL]
1,CCCC[C@H](CN(O)C=O)C(=O)N1CCC[C@H]1c1nnc(-c2ccc([N+](=O)[O-])cc2F)s1,16
2,CCCC[C@H](CN(O)C=O)C(=O)N1CCC[C@H]1c1nnc(-c2ccc(-c3ccccn3)cc2)s1,32

# Target: T2, Peptide deformylase (Escherichia coli, UniProt Q9JN24)
# T2 sequence (Q9JN24 whole entry): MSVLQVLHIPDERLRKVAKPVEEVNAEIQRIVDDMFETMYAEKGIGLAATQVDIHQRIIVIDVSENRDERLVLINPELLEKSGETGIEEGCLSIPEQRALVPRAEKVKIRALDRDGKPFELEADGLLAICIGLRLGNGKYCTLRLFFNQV
# Assay: Inhibition of Escherichia coli PDF-Ni assessed as enzyme activity incubated for 30 min by fluorescamine method
# Conditions: not given
row,Structure (SMILES),IC50 [µM]
1,CCCC[C@H](CN(O)C=O)C(=O)N1CCC[C@H]1c1nnc(-c2ccc(-c3ccccn3)cc2)s1,0.124

# Tested on: Staphylococcus aureus
# Assay: Antibacterial activity against methicillin-resistant Staphylococcus aureus Bio-090770 after 16 to 18 hrs by broth microdilution method
# Format: functional
# Conditions: time 16-18 hrs
row,Structure (SMILES),MIC [µg/mL]
1,CCCC[C@H](CN(O)C=O)C(=O)N1CCC[C@H]1c1nnc(-c2ccc([N+](=O)[O-])cc2F)s1,0.5
2,CCCC[C@H](CN(O)C=O)C(=O)N1CCC[C@H]1c1nnc(-c2ccc(-c3ccccn3)cc2)s1,0.5

# Tested on: Klebsiella pneumoniae
# Assay: Antibacterial activity against Klebsiella pneumoniae CICC 21092 after 16 to 18 hrs by broth microdilution method
# Format: functional
# Conditions: time 16-18 hrs
row,Structure (SMILES),MIC [µg/mL]
1,CCCC[C@H](CN(O)C=O)C(=O)N1CCC[C@H]1c1nnc(-c2ccc([N+](=O)[O-])cc2F)s1,32
2,CCCC[C@H](CN(O)C=O)C(=O)N1CCC[C@H]1c1nnc(-c2ccc(-c3ccccn3)cc2)s1,32

# Tested on: Acinetobacter baumannii
# Assay: Antibacterial activity against Acinetobacter baumannii Bio 34235 after 16 to 18 hrs by broth microdilution method
# Format: functional
# Conditions: time 16-18 hrs
row,Structure (SMILES),MIC [µg/mL]
1,CCCC[C@H](CN(O)C=O)C(=O)N1CCC[C@H]1c1nnc(-c2ccc([N+](=O)[O-])cc2F)s1,> 16
2,CCCC[C@H](CN(O)C=O)C(=O)N1CCC[C@H]1c1nnc(-c2ccc(-c3ccccn3)cc2)s1,32

# Tested on: Escherichia coli
# Assay: Antibacterial activity against Escherichia coli ATCC 25922 after 16 to 18 hrs by broth microdilution method
# Format: functional
# Conditions: time 16-18 hrs
row,Structure (SMILES),MIC [µg/mL]
1,CCCC[C@H](CN(O)C=O)C(=O)N1CCC[C@H]1c1nnc(-c2ccc([N+](=O)[O-])cc2F)s1,> 16
2,CCCC[C@H](CN(O)C=O)C(=O)N1CCC[C@H]1c1nnc(-c2ccc(-c3ccccn3)cc2)s1,64

# Tested on: Escherichia coli
# Assay: Antibacterial activity against Escherichia coli ATCC 10661 after 16 to 18 hrs by broth microdilution method
# Format: functional
# Conditions: time 16-18 hrs
row,Structure (SMILES),MIC [µg/mL]
1,CCCC[C@H](CN(O)C=O)C(=O)N1CCC[C@H]1c1nnc(-c2ccc([N+](=O)[O-])cc2F)s1,8
2,CCCC[C@H](CN(O)C=O)C(=O)N1CCC[C@H]1c1nnc(-c2ccc(-c3ccccn3)cc2)s1,16

# Tested on: Acinetobacter baumannii
# Assay: Antibacterial activity against Acinetobacter baumannii Bio 24253 after 16 to 18 hrs by broth microdilution method
# Format: functional
# Conditions: time 16-18 hrs
row,Structure (SMILES),MIC [µg/mL]
1,CCCC[C@H](CN(O)C=O)C(=O)N1CCC[C@H]1c1nnc(-c2ccc([N+](=O)[O-])cc2F)s1,32
2,CCCC[C@H](CN(O)C=O)C(=O)N1CCC[C@H]1c1nnc(-c2ccc(-c3ccccn3)cc2)s1,32

# Tested on: not listed separately
# Assay: Cytotoxicity against human HeLa cells assessed as cell viability at 3.125 to 100 uM incubated for 24 hrs by MTT assay
# Format: toxicity, cell-based
# Conditions: not given
row,Structure (SMILES),IC50 at 24 h [µM]
1,CCCC[C@H](CN(O)C=O)C(=O)N1CCC[C@H]1c1nnc(-c2ccc([N+](=O)[O-])cc2F)s1,91.7
2,CCCC[C@H](CN(O)C=O)C(=O)N1CCC[C@H]1c1nnc(-c2ccc(-c3ccccn3)cc2)s1,89
